Key:
[1] = intrinsic aqueous solubility; Int. J. Pharmaceutics 2020, 589, 119812; cited from earlier work
physchem = conditions: aqueous medium, thermodynamic from solid, room temperature
Procedure: The thermodynamic aqueous solubility of CBD and CBG glycine conjugates in salt forms was determined using the equilibrium shake method outlined in the United States Pharmacopeia (USP) General Chapter <1236>Solubility Measurements (Table 1).

[2] = Solubility (mg/mL) CBD/CBG equivalent, expressed as CBD/CBG equivalent
[3] = Solubility (mg/mL) Salt derivative, expressed as salt derivative

## C=C(C)[C@@H]1CCC(C)=C[C@H]1c1c(O)cc(CCCCC)cc1O [CBD, cannabidiol]
[1]
  solubility of CBD: 0.1 µg/mL

## CCCCCc1cc(O)c(C/C=C(\C)CCC=C(C)C)c(OC(=O)NCC(=O)[O-])c1.[Na+] [Example 10, Sodium (E)-((2-(3,7-dimethylocta-2,6-dien-1-yl)-3-hydroxy-5-pentylphenoxy)carbonyl)glycinate]
physchem; [2]
  solubility: 10000 µg/mL
physchem; [3]
  solubility: 13300 µg/mL

## C=C(C)[C@@H]1CCC(C)=C[C@H]1c1c(O)cc(CCCCC)cc1OC(=O)NCC(=O)[O-].[Na+] [Example 3, Sodium ((((1′R,2′R)-6-hydroxy-5′-methyl-4-pentyl-2′-(prop-1-en-2-yl)-1′,2′,3′,4′-tetrahydro-[1,1′-biphenyl]-2-yl)oxy)carbonyl)glycinate]
physchem; [2]
  solubility: 3140 µg/mL
physchem; [3]
  solubility: 4370 µg/mL
